# Columns and labels:
# Test in all cases: relative viability (nuclei count vs DMSO), 5 days (fraction); higher = more cells survive
# [1] = compound: CN(C)C[C@@H]1CCn2cc(c3ccccc32)C2=C(C(=O)NC2=O)c2cn(c3ccccc23)CCO1 [Ruboxistaurin]
# Outline: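 Lung cancer cell lines in 1536-well plates were exposed by pinning to five library-drug doses (not always all listed) √10 apart, following an overnight hold at 37 °C. MetaXpress counted Hoechst-stained nuclei from 4× images taken after 5 days without medium change. Viability is the median ratio of treated-well to vehicle-well nuclei across plates. Plates required control CV below 25% and at least one doubling.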
# [2] = compound: CN(C)C[C@@H]1CCn2cc(c3ccccc32)C2=C(C(=O)NC2=O)c2cn(c3ccccc23)CCO1 [Ruboxistaurin] + Nc1ncn([C@H]2C[C@H](O)[C@@H](CO)O2)c(=O)n1 [Decitabine] (partner 2 µM)
# Outline: (§1)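 Cells from lung cancer lines were seeded into 1536-well plates and, one day later, dosed by pin tool. Treatments were either a single drug or a fixed dose of an anchor drug with five library-drug doses (not always all listed) in √10 steps. After 5 days, nuclei were stained in a one-step fixation (final 0.05% Triton X-100, 1% formaldehyde, 1 ug/ml Hoechst) and counted on 4× images, and relative viability is the treated-to-vehicle nuclei ratio, as the median of duplicate plates.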
# [3] = compound: CN(C)C[C@@H]1CCn2cc(c3ccccc32)C2=C(C(=O)NC2=O)c2cn(c3ccccc23)CCO1 [Ruboxistaurin] + COc1cccc2cc(-c3nc([C@H]4CC[C@H](C(=O)O)CC4)n4ncnc(N)c34)[nH]c12 [OSI-027] (partner 0.5 µM)
# Outline: as §1
# [4] = compound: CN(C)C[C@@H]1CCn2cc(c3ccccc32)C2=C(C(=O)NC2=O)c2cn(c3ccccc23)CCO1 [Ruboxistaurin] + CS(=O)(=O)N1CCN(Cc2cc3nc(-c4cccc5[nH]ncc45)nc(N4CCOCC4)c3s2)CC1 [Pictilisib] (partner 1 µM)
# Outline: as §1
# [5] = compound: CN(C)C[C@@H]1CCn2cc(c3ccccc32)C2=C(C(=O)NC2=O)c2cn(c3ccccc23)CCO1 [Ruboxistaurin] + CC1(C)CCC(c2ccc(Cl)cc2)=C(CN2CCN(c3ccc(C(=O)NS(=O)(=O)c4ccc(N[C@H](CCN5CCOCC5)CSc5ccccc5)c(S(=O)(=O)C(F)(F)F)c4)cc3)CC2)C1 [Navitoclax] (partner 0.5 µM)
# Outline: as §1
Cell Line,relative viability ([1]; 0.08 µM),relative viability ([1]; 0.8 µM),relative viability ([1]; 2.53 µM),relative viability ([1]; 8 µM),relative viability ([2]; first compound 0.08 µM),relative viability ([2]; first compound 0.8 µM),relative viability ([2]; first compound 2.53 µM),relative viability ([2]; first compound 8 µM),relative viability ([3]; first compound 0.08 µM),relative viability ([3]; first compound 0.8 µM),relative viability ([3]; first compound 2.53 µM),relative viability ([3]; first compound 8 µM),relative viability ([4]; first compound 0.08 µM),relative viability ([4]; first compound 0.8 µM),relative viability ([4]; first compound 2.53 µM),relative viability ([4]; first compound 8 µM),relative viability ([5]; first compound 0.08 µM),relative viability ([5]; first compound 0.8 µM),relative viability ([5]; first compound 2.53 µM),relative viability ([5]; first compound 8 µM)
LK-2,0.952,1,1.12,0.833,0.356,0.315,0.402,0.238,0.224,0.222,0.158,0.158,0.595,0.52,0.652,0.303,0.893,0.792,0.875,0.674
LOU-NH91,1.09,0.939,1.01,0.927,0.909,0.772,0.855,0.775,0.748,0.629,0.663,0.676,0.554,0.494,0.526,0.502,0.846,0.58,0.738,0.692
LU99A,0.956,0.858,1.04,0.852,0.861,0.762,1.01,0.773,0.285,0.271,0.266,0.258,0.338,0.275,0.242,0.21,0.883,0.71,0.798,0.716
LXF-289,1.02,0.999,0.991,1.06,0.377,0.338,0.38,0.418,0.804,0.74,0.9,0.623,0.815,0.718,0.736,0.647,0.967,0.928,0.931,1.04
NCI-H23,0.974,0.892,1.03,0.886,0.279,0.259,0.364,0.283,0.601,0.448,0.593,0.457,0.428,0.374,0.392,0.38,0.897,0.59,0.91,0.68
NCI-H322M,1.02,0.863,0.895,0.551,0.746,0.656,0.6,0.619,0.646,0.514,0.514,0.377,0.553,0.484,0.432,0.385,1.2,1.09,1.24,1.19
NCI-H441,1.14,0.936,1.19,0.947,0.278,0.309,0.277,0.269,0.65,0.474,0.607,0.456,0.475,0.392,0.566,0.356,0.682,0.464,0.928,0.66
NCI-H460,1.01,0.98,1.04,1.02,0.49,0.448,0.533,0.595,0.604,0.557,0.501,0.217,0.378,0.256,0.371,0.325,1.2,1.03,1.16,0.935
NCI-H520,1.05,0.901,1.02,0.779,0.535,0.477,0.544,0.612,0.192,0.258,0.233,0.218,0.324,0.264,0.236,0.208,1.24,0.984,1.19,0.955
NCI-H596,0.979,0.864,1.02,0.867,0.978,0.892,0.987,0.973,0.811,0.552,0.799,0.508,0.472,0.352,0.374,0.346,0.962,0.845,0.983,0.69
NCI-H647,1.1,0.898,1,0.978,0.442,0.33,0.373,0.547,0.754,0.532,0.432,0.42,0.53,0.37,0.417,0.258,1.23,1,1.17,1.2
NCI-H727,0.952,0.7,0.969,0.808,0.862,0.839,0.976,0.639,0.764,0.416,0.523,0.448,0.563,0.244,0.433,0.284,0.46,0.394,0.458,0.338
NCI-H838,1.03,0.839,0.964,0.923,0.476,0.445,0.526,0.583,0.4,0.33,0.301,0.313,0.468,0.376,0.371,0.383,1.38,1.05,1.3,0.979
NCI-H1355,1.05,0.882,0.971,0.944,0.37,0.356,0.347,0.411,0.444,0.322,0.382,0.297,0.473,0.364,0.309,0.276,1.09,0.853,0.897,0.813
NCI-H1395,1.05,0.844,1.01,0.882,0.666,0.667,0.781,0.686,0.653,0.647,0.662,0.597,0.635,0.611,0.713,0.518,1.12,1.03,1.2,1.06
NCI-H1437,1,0.914,0.993,1.07,0.571,0.621,0.622,0.702,0.985,0.793,0.835,0.804,0.488,0.388,0.383,0.305,1.11,1.05,1.15,1.11
NCI-H1650,1.24,0.742,1.08,0.886,0.387,0.524,0.501,0.468,0.711,0.408,0.614,0.376,0.679,0.402,0.646,0.359,1.09,1.2,1.34,1.2
NCI-H1651,1.02,0.983,1,1.03,0.698,0.542,0.681,0.632,0.779,0.611,0.653,0.566,0.63,0.531,0.502,0.624,1.08,0.827,1.05,1.11
NCI-H1666,1.09,1.02,1.04,0.968,0.728,0.693,0.693,0.788,0.885,0.785,0.929,0.759,0.413,0.355,0.474,0.421,1.12,0.679,1.1,0.931
NCI-H1734,0.989,0.832,1.04,0.816,0.535,0.466,0.501,0.521,0.628,0.411,0.56,0.385,0.471,0.398,0.46,0.352,0.964,0.671,0.857,0.745
NCI-H1755,1.01,1.01,0.974,1.03,0.731,0.678,0.691,0.778,0.714,0.621,0.614,0.549,0.422,0.362,0.373,0.264,1.05,0.934,0.963,0.962
NCI-H1792,1.09,0.78,0.938,0.796,0.63,0.479,0.491,0.554,0.798,0.605,0.736,0.625,0.258,0.231,0.246,0.233,0.701,0.605,0.637,0.68
NCI-H1793,1.05,0.749,1.27,1.08,0.461,–,0.614,0.549,0.262,0.239,0.273,0.265,0.454,0.288,0.478,0.316,0.503,0.382,0.468,0.604
NCI-H1915,0.984,0.958,0.998,0.962,0.252,0.262,0.277,0.268,0.645,0.489,0.505,0.363,0.978,0.839,0.924,0.845,0.811,0.752,0.765,0.867
NCI-H1944,0.958,0.897,0.932,0.819,0.439,0.403,0.405,0.46,0.411,0.334,0.404,0.271,0.332,0.279,0.354,0.31,1.08,1,1.04,1.09
NCI-H1975,0.945,0.834,1.02,0.927,0.43,0.346,0.393,0.42,0.751,0.578,0.645,0.502,0.302,0.235,0.252,0.211,1.2,1.04,1.25,0.996
NCI-H1993,1.18,0.756,0.908,0.696,0.579,0.559,0.582,0.522,0.6,0.479,0.543,0.531,0.828,0.742,0.763,0.697,1.08,0.919,0.994,0.689
NCI-H2009,1.04,0.946,1.06,1.19,0.39,0.371,0.411,0.406,0.735,0.536,0.608,0.548,0.819,0.796,0.825,0.552,1.21,1.16,1.18,1.17
NCI-H2023,1.02,0.788,1.08,0.735,0.214,0.214,0.254,0.256,0.438,0.309,0.271,0.158,0.243,0.179,0.194,0.156,0.973,0.837,0.947,0.89
NCI-H2085,1.02,0.942,1.07,1.04,0.485,0.534,0.67,0.667,0.731,0.521,0.791,0.446,0.447,0.419,0.409,0.324,1.27,1.1,1.27,1.26
